This is an account of results in the NIST ThermoML archive (doi:10.1016/j.jct.2018.08.012).

The conditions of the series: for mass density: 298 K, 101.33 kPa, X-ray diffraction; for Triple point temperature: DSC.

Each structure is given as a SMILES string. Numbers after ± are expanded uncertainties.

Consider `[Ag+].[Ag+].[Te-2]` [silver(I) telluride], for which, for the setting “Crystal 3”, the mass density is given as 8321 ± 2 kg/m3. The Normal melting temperature (Crystal 1, DTA) is 962 ± 4 °C. Besides, the Triple point temperature reads like this: (Crystal 2) 1075 ± 4 K; (Crystal 3) 418 ± 4 K.

In the case of `[Ag+].[Ag+].[Ag+].[Ag+].[I-].[I-].[I-].[I-].[I-].[Rb+]` [rubidium silver iodide (Ag4RbI5)], the mass density (Crystal) was 5389 ± 2 kg/m3.
